Structures can show the parent of a compound that is named as a salt.

The target of the assay is T1, recombinant human CXCR2 (Homo sapiens, UniProt P25025).
T1 construct: TEV protease site; Gal4-VP16 transcription factor
T1 sequence (P25025 1-360): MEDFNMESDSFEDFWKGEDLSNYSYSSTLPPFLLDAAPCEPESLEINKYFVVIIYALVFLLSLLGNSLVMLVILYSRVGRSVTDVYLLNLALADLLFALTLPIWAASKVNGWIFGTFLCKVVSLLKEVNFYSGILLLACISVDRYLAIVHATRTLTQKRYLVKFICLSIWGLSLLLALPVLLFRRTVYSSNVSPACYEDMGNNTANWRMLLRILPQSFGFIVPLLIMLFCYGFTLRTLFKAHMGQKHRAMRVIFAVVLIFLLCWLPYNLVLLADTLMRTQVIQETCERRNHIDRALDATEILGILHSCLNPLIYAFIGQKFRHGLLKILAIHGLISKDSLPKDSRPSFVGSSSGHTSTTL
The assay can be described thus: CXCR2 Tango assay. It is filed as cell-based. Conditions: mean pIC50 of multiple test results; stimulated with 80 nM hCXCL1; reporter gene blue/green emission ratio; read-out: pIC50 (CXCR2 Tango assay) (converted). An excerpt: The assay measures ligand-induced activation of the receptor CXCR2 in a stable cell line containing the recombinant human CXCR2 linked to a TEV protease site and a Gal4-VP16 transcription factor (Invitrogen). Ligand binding to the receptor results in the recruitment of arrestin proteins (tagged with protease) to the receptor and triggers the release of a tethered transcription factor. The transcription factor enters the nucleus and activates the transcription of the reporter gene. The ability of a compound to inhibit CXCR2 activation is indirectly assessed by measuring the reporter gene activity.
A vial of cryopreserved cells was removed from liquid nitrogen and rapidly thawed in a water bath at 37° C. with gentle agitation. The contents of the vial were transferred drop-wise into Thawing Medium in a sterile 15 ml conical tube and then centrifuged at 1000 rpm for 4-5 min. Then the cell pellets were resuspended in Assay Medium at a density of ˜200,000 cells/ml. All test compounds were dissolved in DMSO at a concentration of 10 mM and were prepared in 100% DMSO to provide 10 point dose response curves. A reference CXCR2 antagonist was added to wells in row 2, columns 1-5 & 7-11. Exemplified compounds 1-4, 7, 8-10, 13-22, 24-26, 28-30, 32, 33, 36, 37, 40, 42-44. 95-110, 115-118, 120, 121, 125, 126, 129-134, 137, 138, 140, 142, 147-149, 153-157, 159-162, 163-166, 168, 170, 172, 174-180 and 202 were tested using the CXCR2 antagonist sodium 3-chloro-6-(3-(2,3-dichlorophenyl)ureido)-2-sulfamoylphenolate as reference compound (Reference Compound 1) (published International patent application WO2002/079122). […] Test compounds were added to wells in row 2, columns 13-17 & 19-23 and rows 3-15, columns 1-5 & 7-11/13-17 & 19-23 (columns 6 and 18 as positive controls and un-stimulated controls respectively; columns 12 and 24 as cell-free control). Compounds in solution were added to the assay plate (Greiner 781090) using an Echo (Labcyte) concentration-response program (50 nl/well). The cell-free, un-stimulated and positive controls were loaded with 50 nl/well pure DMSO to ensure that the DMSO concentration was constant across the plate for all assays. Using Multi-drop Combi (Thermo) with standard cassette, 50 μl of Assay Medium was added to each well in the cell-free controls (columns 12 and 24); 50 μl of the cell suspension without hCXCL1 (a CXCR2 ligand) was added to each well in column 18 of the plate (˜10,000 cells per well); and 50 μl of the cell suspension with 80 nM hCXCL1 was added to the rest of wells of the plate (˜10,000 cells per well). The cells were incubated overnight at 37° C./5% CO2. 10 μl of 6× substrate mixture (LiveBLAzer™-FRET B/G substrate (CCF4-AM) Cat # K1096 from Invitrogen, Inc.) was added to each well using Multi-drop Combi (Thermo) with small-tube cassette and the plates incubated at room temperature for 2 h in the dark. The plate was finally read on EnVision using one excitation channel (409 nm) and two emission channels (460 nm and 530 nm).
The blue/green emission ratio (460 nm/530 nm) was calculated for each well, by dividing the background-subtracted Blue emission values by the background-subtracted Green emission values. The dose response curve was based on sigmoidal dose-response model. All ratio data was normalized based upon the maximum emission ratio of positive control (hCXCL1) and minimum emission ratio of negative control (DMSO) on each plate. The intrinsic activity (IA) of each compound would be the normalized percentage of its maximum response after curve fitting.
All exemplified compounds (except for Compounds 203 and 204) were tested in the CXCR2 Tango assay or a similar assay described above. The data mentioned below represents a mean pIC 50 value of multiple test results. It is understood that the data illustrated below may have reasonable variation depending on the specific conditions and procedures used by the person conducting the testing.
As for `CC1=CCCC1NC(=O)Nc1ccc(Cl)c(S(=O)(=O)N2CCC(F)(F)CC2)c1O` (stereo not drawn) [Compound 115, 1-(4-chloro-3-((4,4-difluoropiperidin-1-yl)sulfonyl)-2-hydroxyphenyl)-3-(2-methylcyclopent-2-en-1-yl)urea], the IC50 was at most 10 nM. Regarding `CC(C)S(=O)(=O)c1c(Cl)ccc(NC(=O)NC2CCC=C2F)c1O` (stereo not drawn) [Compound 22, 1-(4-chloro-2-hydroxy-3-(isopropylsulfonyl)phenyl)-3-(2-fluorocyclopent-2-en-1-yl)urea], the IC50 was at most 10 nM. Next, `CC1=CCC[C@H]1NC(=O)Nc1ccc(Cl)c(S(=O)(=O)C2(F)CCN(C3CCC3)CC2)c1O` [Compound 73, (R)-1-(4-chloro-3-((1-cyclobutyl-4-fluoropiperidin-4-yl)sulfonyl)-2-hydroxyphenyl)-3-(2-methylcyclopent-2-en-1-yl)urea, trifluoroacetic acid salt]: at most 1 nM.

As to `CC1(S(=O)(=O)c2c(Cl)ccc(NC(=O)NC3CCC=C3Cl)c2O)CCOCC1` (stereo not drawn) [Compound 44, 1-(4-chloro-2-hydroxy-3-((4-methyltetrahydro-2H-pyran-4-yl)sulfonyl)phenyl)-3-(2-chlorocyclopent-2-en-1-yl)urea], the IC50 is at most 10 nM. As for `CC1=CCC[C@H]1NC(=O)Nc1ccc(Cl)c(S(=O)(=O)C(F)(F)c2ccccn2)c1O` [Compound 63, (R)-1-(4-chloro-3-((difluoro(pyridin-2-yl)methyl)sulfonyl)-2-hydroxyphenyl)-3-(2-methylcyclopent-2-en-1-yl)urea, trifluoroacetic acid salt], the IC50 is at most 1 nM.

For the compound `O=C(Nc1ccc(Cl)c(S(=O)(=O)[C@H]2C[C@@H](O)C2)c1O)N[C@@H]1CCC=C1Cl` [Compound 162, 1-(4-chloro-2-hydroxy-3-((cis-3-hydroxycyclobutyl)sulfonyl)phenyl)-3-((R)-2-chlorocyclopent-2-en-1-yl)urea], the IC50 is at most 1 nM. As to `CC(C)(F)S(=O)(=O)c1c(Cl)ccc(NC(=O)NC2CCC=C2Cl)c1O` (stereo not drawn) [Compound 15, 1-(4-chloro-3-((2-fluoropropan-2-yl)sulfonyl)-2-hydroxyphenyl)-3-(2-chlorocyclopent-2-en-1-yl)urea], the IC50 was at most 10 nM.

In the case of `COCCN1CCN(S(=O)(=O)c2c(Cl)ccc(NC(=O)NC3CCC=C3C)c2O)CC1` (stereo not drawn) [Compound 161, 1-(4-chloro-2-hydroxy-3-((4-(2-methoxyethyl)piperazin-1-yl)sulfonyl)phenyl)-3-(2-methylcyclopent-2-en-1-yl)urea], the IC50 is at most 10 nM. With `CC1=CCCC1NC(=O)Nc1ccc(Cl)c(S(=O)(=O)[C@H]2CC[C@H](N3CCCC3)CC2)c1O` (stereo partly drawn) [Compound 98, 1-(4-chloro-2-hydroxy-3-(((1R,4R)-4-(pyrrolidin-1-yl)cyclohexyl)sulfonyl)phenyl)-3-(2-methylcyclopent-2-en-1-yl)urea, trifluoroacetic acid salt], the IC50 was at most 1 nM. Take `CCO[C@H]1C[C@@H](S(=O)(=O)c2c(Cl)ccc(NC(=O)N[C@@H]3CCC=C3C)c2O)C1` [Compound 124, (R)-1-(4-chloro-3-((cis-3-ethoxycyclobutyl)sulfonyl)-2-hydroxyphenyl)-3-(2-methylcyclopent-2-en-1-yl)urea]: the IC50 is at most 1 nM. Turning to `CC1=CCC[C@H]1NC(=O)Nc1ccc(Cl)c(S(=O)(=O)C2CC[C@@H](N(C)C)C2)c1O` (stereo partly drawn) [Compound 127, cis-1-(4-chloro-3-((3-(dimethylamino)cyclopentyl)sulfonyl)-2-hydroxyphenyl)-3-((R)-2-methylcyclopent-2-en-1-yl)urea], the IC50 is at most 1 nM. Consider `CC1=CCCC1NC(=O)Nc1ccc(Cl)c(S(=O)(=O)C2CC3(CCN(C)CC3)C2)c1O` (stereo not drawn) [Compound 140, 1-(4-chloro-2-hydroxy-3-((7-methyl-7-azaspiro[3.5]nonan-2-yl)sulfonyl)phenyl)-3-(2-methylcyclopent-2-en-1-yl)urea], for which the IC50 was at most 10 nM. Then `CC(C)(C(F)(F)F)S(=O)(=O)c1c(Cl)ccc(NC(=O)NC2CCC=C2Cl)c1O` (stereo not drawn) [Compound 2, 1-(4-chloro-2-hydroxy-3-((1,1,1-trifluoro-2-methylpropan-2-yl)sulfonyl)phenyl)-3-(2-chlorocyclopent-2-en-1-yl)urea], with at most 1 nM; and `CC1=CCC[C@H]1NC(=O)Nc1ccc(Cl)c(S(=O)(=O)C2CCN(CC(F)F)CC2)c1O` [Compound 80, (R)-1-(4-chloro-3-((1-(2,2-difluoroethyl)piper-idin-4-yl)sulfonyl)-2-hydroxyphenyl)-3-(2-methylcyclopent-2-en-1-yl)urea trifluoroacetic acid salt], with at most 10 nM. In the case of `CC1=CCC[C@H]1NC(=O)Nc1ccc(Cl)c(S(=O)(=O)[C@@H]2CCCC[C@H]2O)c1O` [Compound 46, 1-(4-chloro-2-hydroxy-3-((trans-2-hydroxycyclohexyl)sulfonyl)phenyl)-3-((R)-2-methylcyclopent-2-en-1-yl)urea], the IC50 was at most 1 nM. In the case of `CCO[C@H]1C[C@@H](S(=O)(=O)c2c(Cl)ccc(NC(=O)N[C@@H]3CCC=C3Cl)c2O)C1` [Compound 125, 1-(4-chloro-3-(((1s,3s)-3-ethoxycyclobutyl)sulfonyl)-2-hydroxyphenyl)-3-(2-chlorocyclopent-2-en-1-yl)urea], the IC50 was at most 10 nM. Next, `CC1=CCCC1NC(=O)Nc1ccc(Cl)c(S(=O)(=O)C(C)c2ccccn2)c1O` (stereo not drawn) [Compound 25, 1-(4-chloro-2-hydroxy-3-((1-(pyridin-2-yl)ethyl)sulfonyl)phenyl)-3-(2-methylcyclopent-2-en-1-yl)urea, trifluoroacetic acid salt]: at most 10 nM; `CC(F)(F)S(=O)(=O)c1c(Cl)ccc(NC(=O)NC2C=CCC2)c1O` (stereo not drawn) [Compound 36, 1-(4-chloro-3-((1,1-difluoroethyl)sulfonyl)-2-hydroxyphenyl)-3-(cyclopent-2-en-1-yl)urea]: at most 10 nM; `CC1=CCCC1NC(=O)Nc1ccc(Cl)c(S(=O)(=O)N(C)C)c1O` (stereo not drawn) [Compound 137, 6-chloro-2-hydroxy-N,N-dimethyl-3-(3-(2-methylcyclopent-2-en-1-yl)ureido)benzene-sulfonamide]: at most 10 nM. Regarding `CC1=CCC[C@H]1NC(=O)Nc1ccc(Cl)c(S(=O)(=O)C(C)(C)[C@@H]2CCOC2)c1O` [Compound 55, 1-(4-chloro-2-hydroxy-3-((2-((R)-tetrahydrofuran-3-yl)propan-2-yl)sulfonyl)phenyl)-3-((R)-2-methylcyclopent-2-en-1-yl)urea], the IC50 is at most 10 nM. Next, `CC1=CCCC1NC(=O)Nc1ccc(Cl)c(S(=O)(=O)[C@H]2C[C@H](CN(C)C)C2)c1O` (stereo partly drawn) [Compound 131, 1-(4-chloro-3-(((1r,3r)-3-((dimethylamino)methyl)cyclobutyl)sulfonyl)-2-hydroxyphenyl)-3-(2-methylcyclopent-2-en-1-yl)urea, trifluoroacetic acid salt]: at most 10 nM.

Values taken from patent publication US10106515B2, “1-(cyclopent-2-en-1-yl)-3-(2-hydroxy-3-(arylsulfonyl)phenyl)urea derivatives as CXCR2 inhibitors” (GLAXOSMITHKLINE INTELLECTUAL PROPERTY DEVELOPMENT LIMITED, priority 2014, dated 2018).
